Data: ChEMBL document CHEMBL1135016, “Inhibition of amine oxidases activity by 1-acetyl-3,5-diphenyl-4,5-dihydro-(1H)-pyrazole derivatives” (Bioorg Med Chem Lett, 2002)

What was measured:
[1] = Inhibitory activity against Serum amine oxidase; No inhibition, corresponding to value >10e-4
[2] = Inhibitory activity against Swine kidney diamine oxidase (SKDAO); No inhibition, corresponding to value >10e-4
Monoamine oxidase = target: T1, Monoamine oxidase (Bos taurus, UniProt P56560+P21398); experiment: Inhibitory activity against Monoamine oxidase from Bovine brain mitochondria
T1 sequence (P56560 whole entry): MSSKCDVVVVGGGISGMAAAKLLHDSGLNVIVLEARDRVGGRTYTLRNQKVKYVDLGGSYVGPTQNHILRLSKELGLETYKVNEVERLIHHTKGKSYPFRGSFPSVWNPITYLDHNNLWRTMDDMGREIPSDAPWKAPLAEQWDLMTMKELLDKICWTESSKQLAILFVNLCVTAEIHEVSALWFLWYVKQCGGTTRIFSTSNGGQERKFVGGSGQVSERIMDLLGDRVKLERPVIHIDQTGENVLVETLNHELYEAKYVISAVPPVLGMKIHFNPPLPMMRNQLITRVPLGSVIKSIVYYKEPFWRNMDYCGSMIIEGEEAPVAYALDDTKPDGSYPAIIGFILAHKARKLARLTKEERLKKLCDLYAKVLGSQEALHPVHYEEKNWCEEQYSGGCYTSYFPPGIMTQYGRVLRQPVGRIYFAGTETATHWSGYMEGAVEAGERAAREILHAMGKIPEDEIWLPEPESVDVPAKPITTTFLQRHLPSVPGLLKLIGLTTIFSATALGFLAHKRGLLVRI
T1 sequence (P21398 whole entry): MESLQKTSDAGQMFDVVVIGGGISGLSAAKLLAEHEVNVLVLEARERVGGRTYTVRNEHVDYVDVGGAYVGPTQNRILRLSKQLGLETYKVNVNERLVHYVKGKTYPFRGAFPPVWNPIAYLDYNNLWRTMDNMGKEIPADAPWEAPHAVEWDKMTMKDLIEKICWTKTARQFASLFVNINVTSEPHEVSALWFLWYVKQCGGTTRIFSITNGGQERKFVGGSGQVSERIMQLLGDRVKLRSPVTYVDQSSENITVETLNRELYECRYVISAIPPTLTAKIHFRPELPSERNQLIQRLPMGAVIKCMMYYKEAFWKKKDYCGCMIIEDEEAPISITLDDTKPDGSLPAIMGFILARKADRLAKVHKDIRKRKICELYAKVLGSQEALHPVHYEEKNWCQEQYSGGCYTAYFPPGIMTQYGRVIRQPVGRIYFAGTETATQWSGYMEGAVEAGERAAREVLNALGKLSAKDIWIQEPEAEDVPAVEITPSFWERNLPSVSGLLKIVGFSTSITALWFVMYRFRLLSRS

[3] = target: T2, Amine oxidase [flavin-containing] B (Homo sapiens, UniProt P27338); experiment: Inhibiting activity of the compound was determined against human Monoamine oxidase B
T2 sequence (P27338 whole entry): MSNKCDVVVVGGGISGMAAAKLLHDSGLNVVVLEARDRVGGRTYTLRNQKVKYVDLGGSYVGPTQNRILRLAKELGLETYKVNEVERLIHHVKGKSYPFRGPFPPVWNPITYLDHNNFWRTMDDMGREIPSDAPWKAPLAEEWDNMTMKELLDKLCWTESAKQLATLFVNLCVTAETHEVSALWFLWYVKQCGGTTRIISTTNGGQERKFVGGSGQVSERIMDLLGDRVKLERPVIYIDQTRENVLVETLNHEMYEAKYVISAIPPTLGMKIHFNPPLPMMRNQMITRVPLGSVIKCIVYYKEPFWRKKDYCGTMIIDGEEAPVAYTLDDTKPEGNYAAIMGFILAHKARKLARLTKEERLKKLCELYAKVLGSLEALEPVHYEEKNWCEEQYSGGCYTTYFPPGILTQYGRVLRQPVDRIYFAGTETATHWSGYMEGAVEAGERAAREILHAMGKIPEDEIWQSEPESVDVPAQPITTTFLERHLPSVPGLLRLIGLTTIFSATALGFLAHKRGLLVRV

[4] = target: T3, Amine oxidase [flavin-containing] A (Bos taurus, UniProt P21398); experiment: Inhibiting activity of the compound was determined against bovine Monoamine oxidase A
T3 sequence (P21398 whole entry): T1 sequence (P21398 whole entry)

[5] = Inhibitory activity against Serum amine oxidase

Ki [1] | Ki [2] | Ki (Monoamine oxidase) | Ki [3] | Ki [4] | Ki [5] | SMILES
No inhibition | No inhibition | 6000 nM |  |  |  | CC(=O)N1N=C(c2ccccc2)CC1c1ccc(Cl)cc1 (stereo unspecified)
 |  | 80 nM | 30 nM | 52 nM |  | CC(=O)N1N=C(c2ccc(O)cc2O)CC1c1ccccc1C (stereo unspecified)
 |  | 5500 nM |  |  |  | CC(=O)N1N=C(c2ccccc2O)CC1c1cccc(C)c1 (stereo unspecified)
 |  | 300000 nM |  |  | 57000 nM | CC(=O)N1N=C(c2ccccc2O)CC1c1ccccc1C (stereo unspecified)
No inhibition | No inhibition | 200000 nM |  |  |  | CC(=O)N1N=C(c2ccccc2)CC1c1cccc(C)c1 (stereo unspecified)
 |  | 50 nM | 38 nM | 13 nM | 10000 nM | CC(=O)N1N=C(c2ccc(O)cc2O)CC1c1cccc(C)c1 (stereo unspecified)
